US7629310B2, “RhoB as a suppressor of cancer cell growth, cell transformation, and metastasis” (University of South Florida, priority 2000, dated 2009)

What was measured:
NIH3T3 cells [1] = assay: 5-FU-induced apoptosis (Annexin V, flow cytometry) in NIH3T3 cells; type: cell-based; settings: for 5-FU apoptotic rate after transfection: NIH3T3, transfected 24 hours then 5-FU 48 hours (FIG. 10A), control 28-30%; for percent of apoptosis induced by 5-FU after transfection: parental NIH3T3, transfected 24 hrs then 5-FU 48 hrs, control 28%
Procedure: Apoptosis Assay. Cells were collected by trypsinization, washed in wash buffer and stained with Annexin V and 7-AAD according to manufacturer's recommendation (PharMingen, San Diego, Calif.). Data acquisition and analysis was performed by the Flow Cytometry Core Facility at the H. Lee Moffitt Cancer Center (Tampa, Fla.). All the samples were performed in duplicate and a representative of 3 independent experiments were reported here.

H-Ras/NIH3T3 cells = assay: Cell proliferation, H-Ras-transformed NIH3T3; type: cell-based; settings: H-Ras-transformed NIH3T3, 0-96 hours
Procedure: (§1) Cell Proliferation. Cells were collected and examined for cell number by trypan blue exclusion and hemocytometer counting under microscope at 0 h, 24 h, 48 h, 72 h and 96 h. All the samples were performed in triplicate and the averages of 3 independent experiments were reported.

NIH3T3 cells [2] = assay: Cell proliferation, parental NIH3T3; type: cell-based; settings: non-transformed NIH3T3, 0-96 hours
Procedure: as §1

A-549 cells = assay: Anoikis assay in A-549 cells; type: cell-based, human; settings: A-549, poly-HEMA plates, 24 hr; control 40%
Procedure: Anoikis Assay. Cells were collected by trypsinization, washed twice with PBS, and re-suspended in serum-free medium containing 0.5% BSA; 5.0×10^5 cells were then seeded in triplicates into 60-mm plates pre-coated with poly(2-hydroxyethylmethacrylate) (poly-HEMA, SIGMA) according to the data sheet of the agents. 24 hrs later the cellular viability was determined by trypan blue exclusion.

B16-F10 melanoma cells = assay: Melanoma metastasis assay (B16-F10 cells injected into tail vein); type: in vivo, mouse; settings: transfected B16-F10 cells, C57 black mice, after 3 weeks, pcDNA3 control 14.8±1.9
Procedure: (§2) Parental NIH3T3 cells (FIG. 10A) were transiently transfected with pcDNA3 vector, HRas61L, or Akt in the presence or absence of RhoA, RhoB, or pcDNA3 for 36 hours. The cells were then split and cultured in DMEM medium containing 2 μM 5-FU for another 48 hours. The cells were then examined for their susceptibility to 5-FU-induced apoptosis by Annexin V labeling and flow cytometry apoptosis assays as described in the Materials and Methods section. 36 hours after the transfection, a fraction of the cells from FIG. 10A were washed and re-suspended in serum-free medium and seeded into the pre-coated plates and examined for viability at different time points by Annex V and 7-AAD labeling, as shown in FIG. 10B. In FIG. 10B, the bars at each time point (0, 12, 24 hrs), left-to-right, correspond to PCD, H-Ras, AKT, RhoA, RhoB, Akt+RhoA, and Akt+RhoB, respectively. […]
Melanoma Metastasis Assay. pcDNA3, pcDNA-RhoB and pcDNA-RhoA were transfected into B16-F10 cells similarly as described above. The cells were harvested 20 hours post-transfection; 5×10^5 cells from each group were analyzed for transfection efficiency by Western Blotting; another 5×10^5 cells were injected into the tail veins of C57/B16 mice (6 wk, F). The mice were sacrificed at the indicated intervals and the nodules growing in the lungs were counted.

NIH3T3 cells [3] = assay: Wound healing migration assay in NIH3T3 cells; type: cell-based; settings: NIH3T3, 24 hours after wounding (FIG. 8D)
Procedure: Parental NIH3T3 (FIG. 8A) were transiently transfected with pcDNA3 vector control, H-Ras61L, CA-PI3K, or CA-Akt in the presence or absence of RhoA or RhoB or pcDNA3 for 36 hours. The cells were then split and cultured for another 4 weeks. The plates were examined for focus formation by staining. H-Ras/3T3 cells (FIG. 8B) and PANC-1 cells (FIG. 8C) were transiently transfected with pcDNA3 vector control, CA-Akt, or WT-Akt in the presence or absence of RhoA, RhoB, or pcDNA3 for 36 hours. The cells were then split and analyzed for their migration capabilities through collagen type I coated transfilters as described in the Materials and Methods section. NIH3T3 cells (FIGS. 8D and 8E) were transiently transfected with pcDNA3 vector control, H-Ras61L, CA-Akt, or WT-Akt in the presence or absence of RhoA, RhoB, or pcDNA3 for 36 hours. The monolayers were then scratched with a 20 μl pipette tip and micro-photographed at the time points indicated for analyzing their capability to migrate into and fill the wounded area.
The ability of RhoB to inhibit cancer cell migration was further confirmed in a different assay where cells are induced to migrate by physical wounding of cells plated on fibronectin pre-coated plates.

NIH3T3 cells [4] = assay: Anoikis assay in transfected NIH3T3 cells; type: cell-based; settings: transfected NIH3T3, poly-HEMA plates, 12 or 24 hours, vs pcDNA3 (FIG. 10B)
Procedure: as §2, with “respectively. B16-F10 melanoma cells were transiently transfected with pcDNA3 vector, pcDNA-RhoA or pcDNA-RhoB; 20 hours later, the cells were examined for gene delivery by Western Blotting with anti-HA, as shown in FIG. 10C. 5×10^5 of the cells from FIG. 10A were injected into the tail veins of C57/B16 mice. The numbers of metastatic nodules per mouse lung represent an average±standard error from 5 mice per group.” for “respectively.”
Anoikis Assay. […] 24 hrs later the cellular viability was determined by trypan blue exclusion.

MMP-2 = MMP-2 expression in conditioned medium of PANC-1 and PC3 cells (Western blotting); type: cell-based, human; settings: conditioned medium (FIG. 9C)
Procedure: HRas/3T3 cells (FIG. 9A) and PANC-1 cells (FIG. 9B) were transiently transfected with pcDNA3 vector control, H-Ras61L, CA-Akt, or WT-Akt in the presence or absence of RhoA, RhoB, or pcDNA3 for 36 hours. The cells were then split and analyzed for their invading capabilities through […]-coated transfilters as described in the Materials and Methods section. PANC-1 and PC3 cells (FIG. 9C) were transiently transfected with pcDNA3, with H-Ras61L in the presence or absence of RhoA, or RhoB for 36 hours. The cells were then serum-starved for another 36 hours; the conditioned medium was collected and 20 μg protein were analyzed for MMP-2 expression by Western Blotting.
One pivotal step in these processes is the ability of cancer cells to cut through the extracellular matrix. This is accomplished by a cascade of proteinases, among which matrix metalloproteinases (MMPs) play a pivotal role (Yoon, S. O. et al., J Biochem Mol Biol, 2003, 36:128-37; Stamenkovic, I. Semin Cancer Biol, 2000, 10:415-33). […] To this end, PANC-1 and PC3 cells were treated with LY294002, or transfected with pcDNA3-RhoA or RhoB, and the conditioned culture medium was collected and analyzed for MMP-2 expression by anti-MMP-2 Western blotting as described in the Materials and Methods section.

| Compound | 5-FU apoptotic rate after transfection (NIH3T3 cells [1]) | percent of apoptosis induced by 5-FU after transfection (NIH3T3 cells [1]) | growth rate (H-Ras/NIH3T3 cells) | growth rate (NIH3T3 cells [2]) | cell death on deprivation of substratum attachment (anoikis) (A-549 cells) | metastatic colonies per lung (B16-F10 melanoma cells) | wound healing (NIH3T3 cells [3]) | cell death induced by lack of attachment (anoikis) (NIH3T3 cells [4]) | MMP-2 protein secreted (MMP-2) | apoptosis (NIH3T3 cells [1]; NIH3T3, 5-FU 48 hours (FIG. 10A)) | apoptosis (NIH3T3 cells [1]; parental NIH3T3, 5-FU 2.0 μM 48 hrs (FIG. 4B)) |
| --- | --- | --- | --- | --- | --- | --- | --- | --- | --- | --- | --- |
| RhoA: closely related family member sharing 86% sequence identity with RhoB; wild-type, in HA-tagged pcDNA3, transfected as control | slightly protected | no significant effect | enhanced the rate of growth | enhanced the rate of growth | protected these cells from anoikis | 13±4.5 | accelerated | much lower rate of anoikis | increased MMP-2 levels, but to a lesser extent | – | – |
| RhoB: low molecular weight GTPase; wild-type RhoB subcloned into HA-tagged pcDNA3 and ectopically expressed by transfection | enhanced | 39% | inhibited the growth rate | not affected | 78% | 2±0.7 | inhibited | significantly higher cell death | remarkably reduced | – | – |
| O=c1[nH]cc(F)c(=O)[nH]1 [5-FU, 5-fluorouracil] | – | – | – | – | – | – | – | – | – | 28-30% | 27-32% |
